Data set [1] can be described thus: Solubilizing CD-Dau, Daunorubicine and t-boc in Neowater (Example 7). Type of data set: physicochemical. The procedure:
Required concentration: 3 mg/ml Neowater.
Properties: The material dissolves in EtOH.
5 different glass vials were prepared: • 1. 5 mg CD-Dau+1.2 ml Neowater™. • 2. 1.8 mg CD-Dau+600 μl acetone. • 3. 1.8 mg CD-Dau+150 μl acetone+450 μl Neowater™ (25% acetone). • 4. 1.8 mg CD-Dau+600 μl 10% *PEG (Polyethylene Glycol). • 5. 1.8 mg CD-Dau+600 μl acetone+600 μl Neowater™. • The samples were vortexed and spectrophotometer measurements were performed on vials #1, 4 and 5 • The vials were left opened in order to evaporate the acetone (vials #2, 3, and 5).
As soon as the acetone was evaporated from solutions #2, 4 and 5, the material sedimented slightly and an additional amount of acetone was added to the vials. This protocol enables the dissolving of the material in the presence of acetone and Neowater™ while at the same time enabling the subsequent evaporation of acetone from the solution (this procedure was performed twice). Following the second cycle the liquid phase was removed from the vile and additional amount of acetone was added to the sediment material. Once the sediment material dissolved it was merged with the liquid phase removed previously. The merged solution was evaporated again. […] Later 1.2 ml of 10% PEG+Neowater™ were added also and after some time the acetone was evaporated from the solution. Finalizing these procedures, the vials were merged to one vial (total volume of 3 ml). On top of this final volume 3 ml of acetone were added in order to dissolve the material and to receive a lucid liquefied solution, which was then evaporated again at 50° C. The solution didn't reach equilibrium due to the fact that once reaching such status the solution would have been separated. By avoiding equilibrium, the material hydration status was maintained and kept as liquid. After the solvent evaporated the material was transferred to a clean vial and was closed under vacuum conditions.
2 mg Daunorubicine+1 ml Neowater™ was prepared in one vial and 2 mg of Daunorubicine+1 ml RO was prepared in a second vial.
1.14 ml of EtOH was added to one glass vial containing 18.5 mg of t-boc (an oily material). This was then divided into two vials and 1.74 ml Neowater™ or RO water was added to the vials such that the solution comprised 25% EtOH. Following spectrophotometer measurements, the solvent was evaporated from the solution and Neowater™ was added to both vials to a final volume of 2.31 ml in each vial. The solutions in the two vials were merged to one clean vial and packaged for shipment under vacuum conditions.

The conditions of data set [2]: cited from earlier work.
Data set [3] is described as follows: Solubilization of retinol in Neowater, absorbance and filtration (Example 10). The data set is classed as physicochemical. On the procedure:
Retinol (vitamin A) was purchased from Sigma (Fluka, 99% HPLC). Retinol was solubilized in Neowater™ under the following conditions. 1% retinol (0.01 gr in 1 ml) in EtOH and Neowater™ 0.5% retinol (0.005 gr in 1 ml) in EtOH and Neowater™ 0.5% retinol (0.125 gr in 25 ml) in EtOH and Neowater™ 0.25% retinol (0.0625 gr in 25 ml) in EtOH and Neowater™. […] Absorbance spectrum of retinol in EtOH: Retinol solutions were made in absolute EtOH, with different retinol concentrations, in order to create a calibration graph; absorbance spectrum was detected in a spectrophotometer. […] Actual concentration of retinol is also unknown since some oil drops are not dissolved in the water. […] The solutions were filtrated in […] filter.

A short description of data set [4]: Taxol in Neowater by slow solvent exchange, HPLC after storage (Example 16). Type of data set: physicochemical. As to conditions: taxol dispersed in Neowater, 6 month storage at −20° C. The procedure: Solubilization: 0.5 mM Taxol solution was prepared (0.0017 gr in 4 ml). […] At the end of the procedure, less than 40% ethanol remained in the solution, leading to 0.08% of ethanol in the final administered concentration. The solution was sterilized using a 0.2 μm filter. Taxol was separately prepared in DMSO (0.5 mM). Both solutions were kept at −20° C. Absorbance was detected with a spectrophotometer.

Data set [5] in a line: Solubilization of taxol in DMSO or Neowater with 17% EtOH (Example 13). The data set is classed as physicochemical. The procedure: The following experiments were performed in order to ascertain whether the carrier composition comprising nanostructures was capable of dissolving material taxol (Paclitaxel) at a final concentration of 0.5 mM.
Solubilization: 0.5 mM Taxol solution was prepared (0.0017 gr in 4 ml) in either DMSO or Neowater™ with 17% EtOH. Absorbance was detected with a spectrophotometer.

Data set [6] is described as follows: Solubilization of peptides in Neowater (Example 9). Type of data set: physicochemical. As to conditions: Neowater at 0.5 mM. The procedure:
In addition, the effect of the peptides on Skov-3 cells was measured in order to ascertain whether the carrier composition comprising nanostructures influenced the cytotoxic activity of the peptides.
Solubilization: All seven peptides (Peptide X, X-5FU, NLS-E, Palm-PFPSYK (CMFU), […]-NH2, NLS-p2-LHRH, and F-LH-RH-palm kGFPSK) were dissolved in Neowater™ at 0.5 mM. Spectrophotometric measurements were taken.

Where a name gives a salt, the structure may show the parent alone. Where no end group is shown, it is not given here.

`COc1cccc2c1C(=O)c1c(O)c3c(c(O)c1C2=O)C[C@@](O)(C(C)=O)C[C@@H]3O[C@H]1C[C@H](N)[C@H](O)[C@H](C)O1` [Daunorubicine, Cerubidine hydrochloride]: the dissolving entry in data set [1] (2 mg in 1 ml Neowater) and in data set [1] (2 mg in 1 ml RO) was “dissolves without difficulty” in each case. In addition, in data set [2], the solubility in water result is recorded as “known not to dissolve in water”.

With `CC1=C(/C=C/C(C)=C/C=C/C(C)=C/CO)C(C)(C)CCC1` [Retinol], the “retinol concentration in EtOH with similar absorbance pattern” value is about 0.03125% in data set [3] (0.25% retinol in Neowater) and about 0.125% in data set [3] (0.5% retinol in Neowater). Besides, the “retinol in the solutions following filtration” value in data set [3] (0.25% retinol in Neowater, 1.5% EtOH, 0.44 and 0.2 filter) is reported as “less than 0.03125%”.

As for `CC(=O)O[C@H]1C(=O)[C@@]2(C)[C@H]([C@H](OC(=O)c3ccccc3)[C@]3(O)C[C@H](OC(=O)[C@H](O)[C@@H](NC(=O)c4ccccc4)c4ccccc4)C(C)=C1C3(C)C)[C@]1(OC(C)=O)CO[C@@H]1C[C@@H]2O` [Taxol, Paclitaxel], in data set [4], the “structural changes on storage (HPLC)” value is reported as “no structural changes”. Moreover, the dissolving entry in data set [5] (0.5 mM in DMSO) and in data set [5] (0.5 mM in Neowater with 17% EtOH) was “dissolved” each time.

As to Daidzein—daunomycin conjugate [CD-Dau], the dissolving entry in data set [1] (Vial #1, 100% Neowater, 5 mg in 1.2 ml) was “sedimented after a few hours”; in data set [1] (Vial #2, 100% acetone, 1.8 mg in 600 μl), 48 hours later the material sedimented partially; in data set [1] (Vial #3, 25% acetone in Neowater), “didn't dissolve very well”; in data set [1] (Vial #4, 10% PEG+Neowater), “dissolved better than the CD-Dau in vial #1”; in data set [1] (Vial #5, acetone then Neowater, acetone evaporated), “as the acetone evaporated the material partially sediment to the bottom of the vial”. Further, the solubility in water result in data set [2] was “known not to dissolve in water”.

As to F-LH-RH-palm kGFPSK, the dissolving entry in data set [6] is reported as “dissolved”.

Turning to PFPSYKLRPG-NH2, the dissolving result in data set [6] is on record as “dissolved”.

Palm-PFPSYK (CMFU): the dissolving result in data set [6] was “dissolved”.

The record behind these values is patent publication US20100086929A1, “DETECTION OF ANALYTES” (DO-COOP TECHNOLOGIES LTD., priority 2007, published 2010).
